According to publication PMC11860023, “Synthesis and Characterization of Memantine-Loaded Niosomes for Enhanced Alzheimer’s Disease Targeting” (Pharmaceutics, 2025):
In brackets after ≈: the same amount, converted by molar mass. Marks after values point to notes of the source that are not given here.

How the values were obtained:
[1] = test system: differentiated SH-SY5Y cells; assay: MTT cell viability test in differentiated SH-SY5Y cell cultures; assay type: cell-based, human; settings: for cell viability at the highest concentration: 500 µg/mL; for IC50: Homo sapiens, read-out: IC50 (concentration required to achieve 50% cell viability), MTT
Experimental: Differentiated SH-SY5Y cells were seeded into 96-well plates, with each well containing 100 μL of culture medium with 2 × 10^4 cells. […] At the end of the incubation period, 10 μL of MTT mixture was added to each well for MTT analysis. The mixture was gently stirred using a circular mixer for 1 min and then incubated in a CO2 incubator at 37 °C for 3–4 h. […] The culture medium was carefully aspirated from each compartment without disturbing the cell layer. Alternatively, before aspiration, the plate was centrifuged at 400× g for 10 min to settle non-adherent cells. Then, 100 μL of crystal solvent solution (DMSO) was added to each compartment, and the absorbance of each sample was measured at 570 nm using a microplate reader [18].

[2] = test system: bEnd.3 cells / SH-SY5Y disease model; assay: In vitro BBB permeability test, transwell bEnd.3 monolayer over SH-SY5Y disease model, viability readout; assay type: cell-based; settings: carrier 0.1 mg/mL loaded with 47 µg/mL vs non-loaded 47 µg/mL, 24 h
Experimental: In vitro BBB models were created using a transwell culture system for BBB permeability analysis. Initially, bEnd.3 cells were seeded inside the membrane of the plate at a starting density of 1 × 10^5 cells/well and cultured for about a week in DMEM growth medium supplemented with 10% fetal bovine serum. Subsequently, the upper compartments containing bEnd.3 monolayers were transferred to plates containing SH-SY5Y cells coated at the bottom of the lower compartments. Then, carrier particles were added to the apical upper chambers of the BBB models at a final concentration of 0.1 mg/mL. Approximately 24 h after incubation, viability analyses were conducted on the SH-SY5Y disease model formed in the lower layer to determine BBB permeability capacities. A schematic diagram of the method is shown below (Figure 2). Prior to starting the experimental procedures, the bEnd.3 cells were cultured until 90–100% confluency was achieved, as this confluency level is necessary for tight junction formation and optimal barrier properties. The integrity of the cell monolayer was then evaluated under an inverted microscope to confirm confluence and uniform cell distribution, ensuring the reliability of the in vitro BBB model.
In vitro BBB permeability analyses were conducted by establishing in vitro transwell BBB models, within which the effects of drug-loaded MP1–4 were studied. […]

[3] = Drug loading (encapsulation efficiency) of niosomes, UV at 236 nm after centrifugal filtration; assay type: physicochemical; settings: Span60:cholesterol 2:1, drug 1 mg/mL
Experimental: The efficiency of MP1–4 encapsulation within the niosomes was evaluated by quantifying the unencapsulated MP1–4. This was achieved by centrifuging the niosomal mixtures at 4 °C for 20 min at a speed of 4000 rpm, utilizing an Amicon Ultra centrifuge filter unit (Millipore Merck, Darmstadt, DE). The optical density of the supernatant containing free MP1–4 was measured at a wavelength of 236 nm with a UV–Vis spectrophotometer (Eppendorf® 580R centrifuge, Hamburg, DE). By determining the concentration of the free drug in the supernatant, we were able to calculate the unknown amount of encapsulated drug. The encapsulation efficiency percentage was then computed based on the initial molecule concentration (Ci) used in the niosome preparation versus the concentration found post-centrifugation (Cf), as in the following equation:% Loading capacity = [(Ci − Cf)/Ci] × 100 (1)
The loading capacities of the synthesized memantine derivative compounds in the niosomal drug delivery system were examined in detail. In this study, loading efficiency was determined by centrifuging niosomal formulations using an Amicon Ultra centrifuge filter device (Millipore Merck, Burlington, MA, USA) at 4000 rpm for 20 min at 4 °C. The amount of free drug remaining was recorded using a UV–Vis spectrophotometer (Eppendorf® 580R centrifuge, Hamburg, DE). […] However, the loading capacity of the memantine derivative MP2 was determined to be 53%, which is below the desired capacity.

[4] = test system: differentiated SH-SY5Y cells exposed to amyloid beta 1−42 peptide; assay: Neuroprotection in the in vitro AD model (differentiated SH-SY5Y exposed to amyloid beta 1-42), MTT; assay type: cell-based, human; settings: for concentration range of optimal neuroprotective activity: AD model, differentiated neuronal cultures; for increase of cell viability versus amyloid beta only control: derivative loaded into niosomal drug delivery system, 47 µg/mL, 24 h; for cell viability versus amyloid beta only control (neuroprotective effect): free compound 47 µg/mL, 10 µM amyloid beta 1−42
Experimental: (§1) The SH-SY5Y neuroblastoma cell line, frequently used as an in vitro model of Alzheimer’s disease, has been cultured to transform into mature neuron-like structures through differentiation with retinoic acid (RA). For this purpose, the SH-SY5Y neuroblastoma cell line was grown in a DMEM:F12 nutrient medium environment with 10% fetal bovine serum (FBS) growth factor, 1% Penicillin/streptomycin, and 5% CO2 at 37 °C. The nutrient medium was refreshed every three days, with half the volume changed. Cells were subcultured after treatment with trypsin/EDTA for 5 min. To differentiate SH-SY5Y cells, the medium containing 10 µM RA (DMEM:F12 + 15% FBS) was added. Five days after the addition of RA, the cells were washed three times with PBS and incubated in DMEM:F12. The differentiation of the cells was determined by cell cycle analysis using a flow cytometry system. […] Converted cell cultures were used as a negative control, and cell cultures with only amyloid beta were used as a positive control without adding the synthesized molecules. The viability rates in the in vitro AD model that we intended to create were analyzed with MTT cytotoxicity tests.
Differentiated SH-SY5Y cells were seeded into 96-well plates, with each well containing 100 μL of culture medium with 2 × 10^4 cells. […] At the end of the incubation period, 10 μL of MTT mixture was added to each well for MTT analysis. The mixture was gently stirred using a circular mixer for 1 min and then incubated in a CO2 incubator at 37 °C for 3–4 h. […] The culture medium was carefully aspirated from each compartment without disturbing the cell layer. Alternatively, before aspiration, the plate was centrifuged at 400× g for 10 min to settle non-adherent cells. Then, 100 μL of crystal solvent solution (DMSO) was added to each compartment, and the absorbance of each sample was measured at 570 nm using a microplate reader.
This peptide is instrumental in AD pathology and serves as a pertinent stressor for assessing the neuroprotective efficacy of potential therapeutic agents.
In the conducted in vitro studies, the neuroprotective effects of memantine derivatives encapsulated within a nanosomal drug delivery system were evaluated using the SH-SY5Y neuroblastoma cell line as a model for AD. The differentiated neuronal cultures were treated with memantine derivatives which were loaded into the niosomal drug delivery systems at a uniform concentration of 47 µg/mL across three independent experimental repeats.

[5] = In vitro drug release from niosomes (dialysis membrane, PBS-SDS, 37 °C); assay type: physicochemical; settings: for Higuchi coefficient (kH): release from niosomal carriers, Higuchi model
Experimental: To investigate the drug’s release profile from the niosomes, an in vitro release study was performed. For the release study, we used loading rates calculated by a drug loading study. A 2 mL aliquot of the optimized niosomal formulation was enclosed within a dialysis membrane (with a 12 kDa molecular weight cut-off) and incubated for 72 h at 37 °C. This incubation occurred in a stirring environment within 50 mL of a release solution composed of phosphate-buffered saline with 0.5% sodium dodecyl sulfate (PBS-SDS) by w/v. Samples of 1 mL were systematically withdrawn at specific intervals (1, 2, 4, 8, and 24 h) from the release medium, with each withdrawal immediately compensated for by an equivalent volume of fresh release medium. The optical density of these samples was measured at 236 nm using a spectrophotometer. From these measurements, the quantity of memantine released was calculated, and the release percentages were reported as a proportion of the total drug release.
Drug release capacities with MP1–4 were determined using the niosomal release systems generated. […] This feature offers an important advantage in terms of controlled drug release. The drug release study was carried out by measuring the absorbance using a spectrophotometer on samples taken at specific time intervals (1, 2, 4, 8, and 24 h). These measurements were carried out at the max peak of the drugs, and the data obtained were used to determine the amount of memantine derivative drug released. The results present the percentages of the released content as a percentage of total release. […] It was also concluded that a slow and proportional release occurred over the indicated time period, indicating the potential for controlled drug release (Figure 6).

[6] = test system: human fibroblast (HDFa) cell cultures; assay: Nuclear abnormality / micronucleus analysis by Hoechst 33258 staining in HDFa cells; assay type: cell-based; settings: 24 h, 125 μg/mL
Experimental: (§2) The human fibroblast cell line (ATCC® PCS-201-012™ Manassas, VA, USA) was propagated in DMEM culture medium enriched with a 1% mixture of penicillin/streptomycin antibiotics and 10% fetal bovine serum (FBS) and maintained in an atmosphere containing 5% CO2 at a temperature of 37 °C until they reached full confluence. To identify nuclei alterations, Hoechst 33258 fluorescent dye was employed. […] Following the treatment period, the cells were stabilized using 4% paraformaldehyde at a cool temperature of 4 °C for 30 min. The cells were then rinsed with PBS and exposed to 1 µM of the Hoechst 33258 dye for a brief duration of 5 min [15]. After the staining process, the cells were examined and imaged using a Leica® DM IL LED (Leica Microsystems, Wetzlar, DE) fluorescent microscope.
Figure 4 Analysis of the genotoxic properties of synthesized memantine derivatives (MP1–4) in cultured human fibroblast cells (HDFa) using Hoechst 33258 fluorescent staining of cell nuclei. (A) MP1, (B) MP2, (C), MP3 and (D) MP4.

SH-SY5Y cells = assay: Cell cycle distribution of SH-SY5Y cells by flow cytometry after retinoic acid differentiation; assay type: cell-based, human; settings: all-trans retinoic acid 10 µM, 11 days
Experimental: as §1
To confirm successful differentiation, flow cytometry was utilized to analyze the cell cycle distribution within the cultures.

[7] = test system: human fibroblast cells (HDFa); assay: MTT cell viability assay of MP1–4 in cultured human fibroblast cells (HDFa); assay type: cell-based; settings: at each concentration applied
Experimental: as §2
The human fibroblast cell line HDFa was cultured and tested for toxicity with 4 different memantine derivatives in 48-well plates. The experiments, conducted in triplicate, included both treated and untreated (negative control) cell cultures. Post-treatment, the cells were incubated with an MTT mixture to assess cell viability, followed by the addition of a crystal solvent solution (DMSO) to dissolve formazan crystals formed in viable cells. The absorbance of each sample was measured to evaluate the cytotoxic effects of the memantine derivatives on the fibroblast cells. […]

SMILES | cell viability at the highest concentration [1] | IC50 [1] [µg/mL] | effect on cell viability / neuroprotection of niosome-loaded versus non-loaded derivative [2] | Drug Loading (%) / encapsulation efficiency [3] [%] | concentration range of optimal neuroprotective activity [4] [µg/mL] | increase of cell viability versus amyloid beta only control [4] | cell viability versus amyloid beta only control (neuroprotective effect) [4] | Higuchi coefficient (kH) [5] | drug release behaviour from niosomal release systems ([5]; sampling at 1, 2, 4, 8 and 24 h) | Mean NA/1000 Cells ± SD [6] | Nuclear Abnormalities (NA) Total Lobbed [6] | Nuclear Abnormalities (NA) Total MN [6] | Nuclear Abnormalities (NA) Total Notched [6] | Cell Population (%) G1 Phase (SH-SY5Y cells) [%] | Cell Population (%) G2 Phase (SH-SY5Y cells) [%] | Cell Population (%) S Phase (SH-SY5Y cells) [%] | decrease of cell viability [7] [%]
CCCC(CCC)C(=O)NC12CC3CC(C)(CC(C)(C3)C1)C2 [MP1] | relatively higher cell viability | 5620 (≈ 18400 µM) | higher effect on cell viability and a significant increase in neuroprotective properties | ≥ 85 | 15.6 to 62.5 | approximately 40% | significantly enhanced cell viability | 10.36 | most optimal drug release | 0.013 ± 0.001 ^a | 3 | 5 | 5 | – | – | – | –
CC1=C(/C=C/C(C)=C/C=C/C(C)=C/C(=O)O)C(C)(C)CCC1 [RA Treated, all-trans retinoic acid] | – | – | – | – | – | – | – | – | – | – | – | – | – | 72.45 ± 3.78 | 5.34 ± 0.17 | 18.65 ± 3.23 | –
CC12CC3CC(C)(C1)CC(NC(=O)CCCc1ccccc1)(C3)C2 [MP2] | relatively higher cell viability | 457 (≈ 1400 µM) | – | 53 | 31.25 to 125 | approximately 40% | significantly enhanced cell viability | 7.55 | – | 0.012 ± 0.002 ^a | 5 | 4 | 3 | – | – | – | –
CC12CC3CC(C)(C1)CC(NC(=O)/C=C/c1ccc(O)c(O)c1)(C3)C2 [MP4] | significantly reduced | 659 (≈ 1930 µM) | higher effect on cell viability and a significant increase in neuroprotective properties | ≥ 85 | – | approximately 40% | significantly enhanced cell viability | 10.82 | – | 0.013 ± 0.003 ^a | 4 | 5 | 4 | – | – | – | ~40
